Test results published in patent US6677310B1, “Ring-expanded nucleosides and nucleotides” (Nabi, priority 1999, dated 2004).

Assays:
Format in all cases: cell-based, human
[1] = test system: OVCAR-5; test: SRB anti-cancer assay, Ovarian Cancer; conditions: OVCAR-5 (Ovarian Cancer), 48 h
[2] = test system: 786-0; test: SRB anti-cancer assay, Renal Cancer; conditions: 786-0 (Renal Cancer), 48 h
[3] = test system: SK-OV-3; test: SRB anti-cancer assay, Ovarian Cancer; conditions: SK-OV-3 (Ovarian Cancer), 48 h
[4] = test system: EKVX; conditions: EKVX (Non-Small Cell Lung Cancer), 48 h
[5] = test system: OVCAR-8; test: SRB anti-cancer assay, Ovarian Cancer; conditions: OVCAR-8 (Ovarian Cancer), 48 h
[6] = test system: MDA-MB- 231/ATCC; test: SRB anti-cancer assay, Breast Cancer; conditions: MDA-MB- 231/ATCC (Breast Cancer), 48 h
[7] = test system: NCI-H23; conditions: NCI-H23 (Non-Small Cell Lung Cancer), 48 h
[8] = test system: M14; test: SRB anti-cancer assay, Melanoma; conditions: 48 h
[9] = test system: ACHN; test: SRB anti-cancer assay, Renal Cancer; conditions: 48 h
[10] = test system: SF-268; test: SRB anti-cancer assay, CNS Cancer; conditions: SF-268 (CNS Cancer), 48 h
[11] = test system: NCI-H460; conditions: NCI-H460 (Non-Small Cell Lung Cancer), 48 h
[12] = test system: HOP-62; conditions: HOP-62 (Non-Small Cell Lung Cancer), 48 h
[13] = test system: T-47D; test: SRB anti-cancer assay, Breast Cancer; conditions: T-47D (Breast Cancer), 48 h
[14] = test system: HCT-116; test: SRB anti-cancer assay, Colon Cancer; conditions: HCT-116 (Colon Cancer), 48 h
[15] = test system: SW-620; test: SRB anti-cancer assay, Colon Cancer; conditions: SW-620 (Colon Cancer), 48 h
[16] = test system: DU-145; test: SRB anti-cancer assay, Prostate Cancer; conditions: DU-145 (Prostate Cancer), 48 h
[17] = test system: CCRF-CEM; test: SRB anti-cancer assay, Leukemia; conditions: 48 h
[18] = test system: HCT-15; test: SRB anti-cancer assay, Colon Cancer; conditions: HCT-15 (Colon Cancer), 48 h
[19] = test system: NCI/ADR-RES; test: SRB anti-cancer assay, Breast Cancer; conditions: 48 h
[20] = test system: A549/ATCC; conditions: A549/ATCC (Non-Small Cell Lung Cancer), 48 h
[21] = test system: SK-MEL-28; test: SRB anti-cancer assay, Melanoma; conditions: SK-MEL-28 (Melanoma), 48 h
[22] = test system: SNB-19; test: SRB anti-cancer assay, CNS Cancer; conditions: SNB-19 (CNS Cancer), 48 h
[23] = test system: RPMI-8226; test: SRB anti-cancer assay, Leukemia; conditions: RPMI-8226 (Leukemia), 48 h
[24] = test system: OVCAR-3; test: SRB anti-cancer assay, Ovarian Cancer; conditions: OVCAR-3 (Ovarian Cancer), 48 h
[25] = test system: SR; test: SRB anti-cancer assay, Leukemia; conditions: 48 h
[26] = test system: NCI-H226; conditions: NCI-H226 (Non-Small Cell Lung Cancer), 48 h
[27] = test system: CAKI-1; test: SRB anti-cancer assay, Renal Cancer; conditions: CAKI-1 (Renal Cancer), 48 h
[28] = test system: UACC-62; test: SRB anti-cancer assay, Melanoma; conditions: UACC-62 (Melanoma), 48 h
[29] = test system: SNB-75; test: SRB anti-cancer assay, CNS Cancer; conditions: SNB-75 (CNS Cancer), 48 h
[30] = read-out: LC50 (the source's name)

N=c1nc(N)c2ncn([C@@H]3O[C@H](COC(=O)c4ccccc4)[C@@H](OC(=O)c4ccccc4)[C@H]3OC(=O)c3ccccc3)c2c(N)n1 [4,8-Diamino-6H-6-imino-1(2′,3′,5′-tri-O-benzoyl-β-D-ribofuranosyl)imidazo[4,5-e][1,3]diazepine]
GI50 [1]: 15.7 µM
TGI [1]: 30.1 µM
CC50 [1, 30]: 57.7 µM
GI50 [2]: 15.5 µM
TGI [2]: 35.6 µM
CC50 [2, 30]: 81.5 µM
GI50 [3]: 16.3 µM
TGI [3]: 30.5 µM
CC50 [3, 30]: 57 µM
GI50 [4]: 10.9 µM
TGI [4]: 29.6 µM
CC50 [4, 30]: 80.4 µM
GI50 [5]: 4.34 µM
LC50 (50% lethal concentration) [5]: > 100 µM
TGI [5]: 22.5 µM
GI50 [6]: 5 µM
TGI [6]: 22 µM
CC50 [6, 30]: 61.6 µM
GI50 [7]: 12.3 µM
TGI [7]: 27.7 µM
CC50 [7, 30]: 62.3 µM
GI50 [8]: 1.91 µM
TGI [8]: 3.54 µM
CC50 [8, 30]: 6.54 µM
GI50 [9]: 10.9 µM
TGI [9]: 23.5 µM
CC50 [9, 30]: 50.7 µM
GI50 [10]: 13.2 µM
TGI [10]: 31.3 µM
CC50 [10, 30]: 74.2 µM
GI50 [11]: 2.52 µM
TGI [11]: 8.42 µM
CC50 [11, 30]: 34.7 µM
GI50 [12]: 7.64 µM
LC50 (concentration for 50% net cell kill) [12]: 55.6 µM
TGI [12]: 22.7 µM
GI50 [13]: 5.14 µM
TGI [13]: 18.9 µM
CC50 [13, 30]: 48.8 µM
GI50 [14]: 3.76 µM
TGI [14]: 21.2 µM
CC50 [14, 30]: 87.5 µM
GI50 [15]: 5.14 µM
TGI [15]: 29.5 µM
CC50 [15, 30]: > 100 µM
GI50 [16]: 8.79 µM
TGI [16]: 21.8 µM
CC50 [16, 30]: 49.1 µM
GI50 [17]: 0.125 µM
TGI [17]: 1.84 µM
CC50 [17, 30]: 6.4 µM
GI50 [18]: 5.77 µM
TGI [18]: 19.5 µM
CC50 [18, 30]: 50.8 µM
GI50 [19]: 13.9 µM
TGI [19]: 31.5 µM
CC50 [19, 30]: 71.4 µM
GI50 [20]: 6.44 µM
TGI [20]: 30 µM
CC50 [20, 30]: > 100 µM
GI50 [21]: 10.4 µM
LC50 [21]: 65.8 µM
TGI [21]: 26.2 µM
GI50 [22]: 14.7 µM
TGI [22]: 31.6 µM
CC50 [22, 30]: 68.2 µM
GI50 [23]: 2.53 µM
TGI [23]: 7.42 µM
CC50 [23, 30]: > 100 µM
GI50 [24]: 10.9 µM
TGI [24]: 23 µM
CC50 [24, 30]: 48.7 µM
GI50 [25]: 4.27 µM
LC50 (concentration killing 50% of cells) [25]: > 100 µM
TGI [25]: >100 µM
GI50 [26]: 6.89 µM
TGI [26]: 25.1 µM
CC50 [26, 30]: 72.4 µM
GI50 [27]: 12.1 µM
TGI [27]: 26.8 µM
CC50 [27, 30]: 59.4 µM
GI50 [28]: 15.6 µM
TGI [28]: 33.4 µM
CC50 [28, 30]: 71.5 µM
GI50 [29]: 12.3 µM
LC50 (concentration killing 50% of cells) [29]: 50.4 µM
TGI [29]: 24.9 µM
